# Measured values: patent US20040259912A1, “Benzine derivatives, process for preparing the same and use thereof” (priority 2001, published 2004)
# Experiments:
# [1] = test system: ICR male mice; conditions: subcutaneous; 55° C. water bath; time measured after 1, 3 and 6 hours
# Protocol: Four to five weeks old ICR male mice (Japan SLC) were used in this test. The mouse was put into a retainer, the tail end was dipped into 55° C. water bath, and the time until the tail end rose to the surface was measured. The time was previously measured before the administration of the drug, and the mouse having the time of less than 2 seconds were selected and used in the test. Cut-off time was set to 10 seconds. The drug was administered subcutaneously, and the time was measured after 1, 3 and 6 hours to evaluate the effects of the drug. The drug was dissolved in a mixture of 10% ethanol, 20% Tween and 80-70% physiological salt solution.
# [2] = test system: RVR1/CHO and HVR1/CHO strains (CHO-K1 cells expressing rat VR1 / human VR1); conditions: in the presence of 1 μM of the compound; 3 hours reaction, then 20 hours culture with Alama Blue; strain (RVR1/CHO or HVR1/CHO) not specified
# Protocol: RVR1/CHO and HVR1/CHO strains were inoculated on 96-well microplates (Corning Coaster) at a concentration of 4×10^4 cells/well, respectively and were cultured for 20 hours. After the culture was removed by suction, 180 μl of Ham's F12 medium (GIBCO BRL) containing 10% fetal calf serum (GIBCO BRL) was added to each well. Next, 20 μl of the assay buffer (Ham's F12 medium (GIBCO BRL), 0.5% BSA and 20 mM HEPES (Dojindo Molecular Technologies, Inc.), pH 7.5) containing a test compound at a final concentration of 1 μM was added to each well and the reaction was carried out in a carbon dioxide incubator for 3 hours. Subsequently, and Alama Blue (Wako Pure Chemical Industries, Ltd.) at a concentration of 25 μl was added to each well, and again cultured for 20 hours. Next, fluorescence was measured at excitation wavelength of 530 nm and fluorescence wavelength of 590 nm using multilabel counter (Wallac-Berthold, Japan), and survival rate of cell was determined.
# According to the above-mentioned method, the agonist activity of test compounds was determined.
# [3] = test system: ICR male mice; conditions: 0.01 mL dropped to the eye; capsaicin (0.3 μg) challenge at 1 hour; stimulating or desensitizing activity not specified
# Protocol: Eight of 4-5 weeks old ICR male mice (Japan SLC) were used in a group. 0.01 mL of the drug was added dropwise to the eye, and the time when the mouse continued to close the eye was measured. The stimulation of the drug was evaluated as positive when the time is more than 10 seconds, and as negative when the time is less than 10 seconds. At 1 hour after the initial treatment, a solution of capsaicin (0.3 μg) was added dropwise to the eye to evaluate whether the stimulation is or not, and examined the desensitizing activity of the compound. The stimulating and desensitizing activity of the drug were calculated as a value of ED50. The drug was dissolved in a mixture of 10% ethanol, 20% Tween and 80-70% physiological salt solution.
# [4] = test system: ICR male mice; experiment: Measurement of mouse bladder volume; format: in vivo; conditions: for Bladder volume / Bladder volume (mL): sc, 3 hours after administration, urethane anesthesia, Mean ± S.E.; for bladder volume of the mouse (result in words): subcutaneous, mouse anesthetized with urethane
# Protocol: Measurement of Mouse Bladder Volume
# Five weeks old ICR male mice were used in this test. At 3 hours after the subcutaneous administration of the drug, the abdomen of mouse was cut open under urethane anesthesia (30 mg/mouse) to expose the bladder. Physiological salt solution was infused into the bladder at the rate of 0.05 mL/minutes to check excretion reflection. All of the urine was drained off, and the physiological salt solution was infused again, and then, the bladder volume of mouse was calculated by measuring the time to urination.
Structure (SMILES),Minimum effective dose [1] [mg/kg],survival rate of the cells [2] [%],ED50 [3] [µg],Bladder volume ([4]; 3 mg/kg) [mL],"Bladder volume (mL) ([4]; 10 mg/kg, *p ≦ 0.05 vs. vehicle)","Bladder volume (mL) ([4]; 100 mg/kg, **p ≦ 0.01 vs. vehicle)",bladder volume of the mouse (result in words) [4],Bladder volume ([4]; 0.03 mg/kg) [mL],"Bladder volume (mL) ([4]; 0.1 mg/kg, *p ≦ 0.05 vs. vehicle)"
"CCC(=O)c1cc(NC(=O)Nc2ccc(OC)c(OC)c2)ccc1OC(c1ccccc1)c1ccccc1 [Example 2, N-[(4-Benzhydryloxy)-3-propionylphenyl]-N′-(3,4-dimethoxyphenyl)urea]",1,0,2.2,–,–,–,–,–,–
"COC(=O)c1cc(NC(=O)Nc2ccccc2)ccc1OC(c1ccccc1)c1ccccc1 [Example 22, Methyl 5-(anilinocarbonylamino)-2-benzhydryloxybenzoate]",–,–,–,0.17 ± 0.03,0.28 ± 0.05* mL,0.31 ± 0.06** mL,increased significantly,–,–
"C=C(C)[C@]12C[C@@H](C)[C@@]34O[C@](Cc5ccccc5)(O[C@@H]1[C@@H]3C=C(COC(=O)Cc1ccc(O)c(OC)c1)C[C@]1(O)C(=O)C(C)=C[C@@H]41)O2 [Resiniferatoxin, resiniferatoxin, reference compound]",–,–,–,–,–,–,increased significantly,0.24 ± 0.04,0.39 ± 0.04* mL
